Where two headings read alike, the source gives them in different places.
Experiments:
Format in all cases: in vivo
[1] = tested on: Surinam grass (Brachiaria decumbens); test: Test B pre/postemergence; conditions: Urochloa decumbens; for pest or weed control at 125 g/ha: 125 g ai/ha; for pest or weed control at 500 g/ha: 500 g ai/ha
Summary of the method: (§1)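 Scores reflect visual comparison with untreated controls, where 0 means no effect and 100 complete control. Plants stayed 13 to 15 days in the greenhouse after pre- or postemergence treatment with compounds carried in a non-phytotoxic solvent and surfactant.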

[2] = tested on: barnyardgrass (Echinochloa crus-galli); test: Test B pre/postemergence; conditions: Echinochloa crus-galli; for pest or weed control at 125 g/ha: 125 g ai/ha; for pest or weed control at 500 g/ha: 500 g ai/ha
Summary of the method: as §1

[3] = tested on: cocklebur (Xanthium strumarium); test: Test B pre/postemergence; conditions: Xanthium strumarium; for pest or weed control at 125 g/ha: 125 g ai/ha; for pest or weed control at 500 g/ha: 500 g ai/ha
Summary of the method: as §1

[4] = tested on: corn (Zea mays); test: Test B pre/postemergence; conditions: Zea mays
Summary of the method: as §1

[5] = tested on: crabgrass (Digitaria sanguinalis); test: Test B pre/postemergence; conditions: Digitaria sanguinalis; for pest or weed control at 125 g/ha: 125 g ai/ha; for pest or weed control at 500 g/ha: 500 g ai/ha
Summary of the method: as §1

[6] = tested on: giant foxtail (Setaria faberii); test: Test B pre/postemergence; conditions: Setaria faberi; for pest or weed control at 125 g/ha: 125 g ai/ha; for pest or weed control at 500 g/ha: 500 g ai/ha
Summary of the method: as §1

[7] = tested on: lambsquarters (Chenopodium album); test: Test B pre/postemergence; conditions: Chenopodium album; for pest or weed control at 125 g/ha: 125 g ai/ha; for pest or weed control at 500 g/ha: 500 g ai/ha
Summary of the method: as §1

[8] = tested on: morningglory (Ipomoea coccinea); test: Test B pre/postemergence; conditions: Ipomoea; for pest or weed control at 125 g/ha: 125 g ai/ha; for pest or weed control at 500 g/ha: 500 g ai/ha
Summary of the method: as §1

[9] = tested on: pigweed (Amaranthus retroflexus); test: Test B pre/postemergence; conditions: Amaranthus retroflexus; for pest or weed control at 125 g/ha: 125 g ai/ha; for pest or weed control at 500 g/ha: 500 g ai/ha
Summary of the method: as §1

[10] = tested on: velvetleaf (Abutilon theophrasti); test: Test B pre/postemergence; conditions: Abutilon theophrasti; for pest or weed control at 125 g/ha: 125 g ai/ha; for pest or weed control at 500 g/ha: 500 g ai/ha
Summary of the method: as §1

[11] = tested on: wheat (Triticum aestivum); test: Test B pre/postemergence; conditions: Triticum aestivum; for plant injury at 125 g/ha: 125 g ai/ha; for plant injury at 500 g/ha: 500 g ai/ha
Summary of the method: as §1

[12] = tested on: blackgrass (Alopecurus myosuroides); test: Test B postemergence; conditions: Alopecurus myosuroides, post-emergence
Summary of the method: as §1

[13] = tested on: wild oat (Avena fatua); test: Test B postemergence; conditions: Avena fatua, post-emergence
Summary of the method: as §1

[14] = tested on: barnyardgrass (Echinochloa crus-galli); test: Test B flooded paddy test; conditions: Echinochloa crus-galli, Flood, 1000 g ai/ha; scale 0 (no effect) to 100 (complete control); read-out: Plant response rating, Barnyardgrass
Summary of the method: (§2)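 Plants were grown to the 2-leaf stage before treatment, then kept in a greenhouse for 13 to 15 days. Injury was rated visually against untreated controls on a 0 to 100 scale, where 0 is no effect and 100 is complete control.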

[15] = tested on: duck salad (Heteranthera limosa); test: Test B flooded paddy test; conditions: Heteranthera limosa, Flood, 1000 g ai/ha; scale 0 to 100; read-out: Plant response rating, Ducksalad
Summary of the method: as §2

[16] = tested on: rice (Oryza sativa); test: Test B flooded paddy test; conditions: Oryza sativa, Flood, 1000 g ai/ha; scale 0 to 100; read-out: Plant response rating, Rice
Summary of the method: as §2

[17] = tested on: umbrella sedge (Cyperus difformis); test: Test B flooded paddy test; conditions: Cyperus difformis, Flood, 1000 g ai/ha; scale 0 to 100; read-out: Plant response rating, Sedge, Umbrella
Summary of the method: as §2

SMILES: Nc1nc(C2CC2)nc(C=O)c1Br [Compound 26]
- pest or weed control at 125 g/ha ([1]; post-emergence, Postemergence, scale 0 to 100 (0 no effect, 100 complete control), read-out: Surinam Grass plant response rating): 30%
- pest or weed control at 500 g/ha ([1]; post-emergence, Postemergence, scale 0 to 100, read-out: Plant response rating, Surinam Grass): 60%
- pest or weed control at 125 g/ha ([1]; pre-emergence, Preemergence, scale 0 to 100 (0 no effect, 100 complete control), read-out: Plant response rating, Surinam Grass): 10%
- pest or weed control at 500 g/ha ([1]; pre-emergence, Preemergence, scale 0 to 100 (0 no effect, 100 complete control), read-out: Surinam Grass plant response rating): 80%
- pest or weed control at 125 g/ha ([2]; post-emergence, Postemergence, scale 0 to 100 (0 no effect, 100 complete control), read-out: Barnyardgrass plant response rating): 20%
- pest or weed control at 500 g/ha ([2]; post-emergence, Postemergence, scale 0 to 100, read-out: Plant response rating, Barnyardgrass): 60%
- pest or weed control at 125 g/ha ([2]; pre-emergence, Preemergence, scale 0 to 100 (0 no effect, 100 complete control), read-out: Plant response rating, Barnyardgrass): 50%
- pest or weed control at 500 g/ha ([2]; pre-emergence, Preemergence, scale 0 to 100 (0 no effect, 100 complete control), read-out: Barnyardgrass plant response rating): 90%
- pest or weed control at 125 g/ha ([3]; post-emergence, Postemergence, scale 0 to 100 (0 no effect, 100 complete control), read-out: Cocklebur plant response rating): 80%
- pest or weed control at 500 g/ha ([3]; post-emergence, Postemergence, scale 0 to 100, read-out: Plant response rating, Cocklebur): 90%
- pest or weed control at 125 g/ha ([3]; pre-emergence, Preemergence, scale 0 to 100 (0 no effect, 100 complete control), read-out: Plant response rating, Cocklebur): 80%
- pest or weed control at 500 g/ha ([3]; pre-emergence, Preemergence, scale 0 to 100 (0 no effect, 100 complete control), read-out: Cocklebur plant response rating): 90%
- plant injury at 125 g/ha ([4]; post-emergence, Postemergence, 125 g ai/ha, scale 0 to 100 (0 no effect, 100 complete control), read-out: Corn plant response rating): 0%
- Corn plant response rating (crop injury, 0 = no effect, 100 = complete kill) at 500 g/ha ([4]; post-emergence, Postemergence, 500 g ai/ha, scale 0 to 100): 20%
- Corn plant response rating (crop injury, 0 = no effect, 100 = complete kill) at 125 g/ha ([4]; pre-emergence, Preemergence, 125 g ai/ha, scale 0 to 100 (0 no effect, 100 complete control)): 30%
- plant injury at 500 g/ha ([4]; pre-emergence, Preemergence, 500 g ai/ha, scale 0 to 100 (0 no effect, 100 complete control), read-out: Corn plant response rating): 80%
- pest or weed control at 125 g/ha ([5]; post-emergence, Postemergence, scale 0 to 100 (0 no effect, 100 complete control), read-out: Crabgrass plant response rating): 40%
- pest or weed control at 500 g/ha ([5]; post-emergence, Postemergence, scale 0 to 100, read-out: Plant response rating, Crabgrass): 70%
- pest or weed control at 125 g/ha ([5]; pre-emergence, Preemergence, scale 0 to 100 (0 no effect, 100 complete control), read-out: Plant response rating, Crabgrass): 30%
- pest or weed control at 500 g/ha ([5]; pre-emergence, Preemergence, scale 0 to 100 (0 no effect, 100 complete control), read-out: Crabgrass plant response rating): 90%
- pest or weed control at 125 g/ha ([6]; post-emergence, Postemergence, scale 0 to 100 (0 no effect, 100 complete control), read-out: Foxtail, Giant plant response rating): 30%
- pest or weed control at 500 g/ha ([6]; post-emergence, Postemergence, scale 0 to 100, read-out: Plant response rating, Foxtail, Giant): 40%
- pest or weed control at 125 g/ha ([6]; pre-emergence, Preemergence, scale 0 to 100 (0 no effect, 100 complete control), read-out: Plant response rating, Foxtail, Giant): 10%
- pest or weed control at 500 g/ha ([6]; pre-emergence, Preemergence, scale 0 to 100 (0 no effect, 100 complete control), read-out: Foxtail, Giant plant response rating): 80%
- pest or weed control at 125 g/ha ([7]; post-emergence, Postemergence, scale 0 to 100 (0 no effect, 100 complete control), read-out: Lambsquarters plant response rating): 70%
- pest or weed control at 500 g/ha ([7]; post-emergence, Postemergence, scale 0 to 100, read-out: Plant response rating, Lambsquarters): 80%
- pest or weed control at 125 g/ha ([7]; pre-emergence, Preemergence, scale 0 to 100 (0 no effect, 100 complete control), read-out: Plant response rating, Lambsquarters): 100%
- pest or weed control at 500 g/ha ([7]; pre-emergence, Preemergence, scale 0 to 100 (0 no effect, 100 complete control), read-out: Lambsquarters plant response rating): 100%
- pest or weed control at 125 g/ha ([8]; post-emergence, Postemergence, scale 0 to 100 (0 no effect, 100 complete control), read-out: Morningglory plant response rating): 70%
- pest or weed control at 500 g/ha ([8]; post-emergence, Postemergence, scale 0 to 100, read-out: Plant response rating, Morningglory): 80%
- pest or weed control at 125 g/ha ([8]; pre-emergence, Preemergence, scale 0 to 100 (0 no effect, 100 complete control), read-out: Plant response rating, Morningglory): 90%
- pest or weed control at 500 g/ha ([8]; pre-emergence, Preemergence, scale 0 to 100 (0 no effect, 100 complete control), read-out: Morningglory plant response rating): 100%
- pest or weed control at 125 g/ha ([9]; post-emergence, Postemergence, scale 0 to 100 (0 no effect, 100 complete control), read-out: Pigweed plant response rating): 70%
- pest or weed control at 500 g/ha ([9]; post-emergence, Postemergence, scale 0 to 100, read-out: Plant response rating, Pigweed): 80%
- pest or weed control at 125 g/ha ([9]; pre-emergence, Preemergence, scale 0 to 100 (0 no effect, 100 complete control), read-out: Plant response rating, Pigweed): 90%
- pest or weed control at 500 g/ha ([9]; pre-emergence, Preemergence, scale 0 to 100 (0 no effect, 100 complete control), read-out: Pigweed plant response rating): 100%
- pest or weed control at 125 g/ha ([10]; post-emergence, Postemergence, scale 0 to 100 (0 no effect, 100 complete control), read-out: Velvetleaf plant response rating): 40%
- pest or weed control at 500 g/ha ([10]; post-emergence, Postemergence, scale 0 to 100, read-out: Plant response rating, Velvetleaf): 70%
- pest or weed control at 125 g/ha ([10]; pre-emergence, Preemergence, scale 0 to 100 (0 no effect, 100 complete control), read-out: Plant response rating, Velvetleaf): 90%
- pest or weed control at 500 g/ha ([10]; pre-emergence, Preemergence, scale 0 to 100 (0 no effect, 100 complete control), read-out: Velvetleaf plant response rating): 100%
- plant injury at 125 g/ha ([11]; post-emergence, Postemergence, scale 0 to 100 (0 no effect, 100 complete control), read-out: Wheat plant response rating): 30%
- plant injury at 500 g/ha ([11]; post-emergence, Postemergence, scale 0 to 100, read-out: Plant response rating, Wheat): 30%
- plant injury at 125 g/ha ([11]; pre-emergence, Preemergence, scale 0 to 100 (0 no effect, 100 complete control), read-out: Plant response rating, Wheat): 30%
- plant injury at 500 g/ha ([11]; pre-emergence, Preemergence, scale 0 to 100 (0 no effect, 100 complete control), read-out: Wheat plant response rating): 60%
- pest or weed control at 125 g/ha ([12]; 125 g ai/ha, scale 0 to 100 (0 no effect, 100 complete control), read-out: Blackgrass plant response rating): 40%
- pest or weed control at 500 g/ha ([12]; 500 g ai/ha, scale 0 to 100, read-out: Plant response rating, Blackgrass): 70%
- pest or weed control at 125 g/ha ([13]; 125 g ai/ha, scale 0 to 100 (0 no effect, 100 complete control), read-out: Oat, Wild plant response rating): 30%
- pest or weed control at 500 g/ha ([13]; 500 g ai/ha, scale 0 to 100, read-out: Plant response rating, Oat, Wild): 40%
- pest or weed control at 1000 g/ha [14]: 60%
- pest or weed control at 1000 g/ha [15]: 90%
- plant injury at 1000 g/ha [16]: 70%
- pest or weed control at 1000 g/ha [17]: 80%

— patent publication US8802597B2, “Herbicidal pyrimidines” (E I du Pont de Nemours and Company, priority 2003, dated 2014)
